# In patent publication US7300770B2, “Detection of microbe contamination on elastomeric articles” (Kimberly-Clark Worldwide, Inc., priority 2004, dated 2007):
# Values joined by “and” are separate entries in the source; they are usually repeats but may differ in a detail not shown here. Equal values may be shown once.
# Experiments:
# aged chicken juice = assay: Comparative dyes dropped onto aged chicken juice on paper towel; conditions: aged chicken juice on SCOTT paper towel
# [1] = test system: aged chicken juice known to have a high bacterial count; assay: Dye coating with or without TWEEN 80 on ceramic surface exposed to aged chicken juice; conditions: coating with TWEEN 80 surfactant; 80 mg/10 mL acetonitrile
# Description: This solution was then used to coat a ceramic surface and allowed to air dry. […] After drying, a drop of aged chicken juice known to have a high bacterial count was placed on the each coating area. […] Furthermore, the addition of TWEEN® surfactant allowed for easy removal of the dye from the surface.
# Polio virus type 1 = conditions: virus diluted serially in media; 50 microliters, 3 minutes
# E. coli [2] = assay: Reichardt's dye and TMB coated towel exposed to E. coli suspension; conditions: towel coated with Reichardt's dye and TMB
# E. coli [3] = assay: Dye-coated towel rubbed with dry E. coli colony; conditions: dry colony rubbed onto pre-moistened coated towel
# Experimental: A test using the Reichardt's dye coated paper towel with a “dry” bacteria sample was carried out. Specifically, a dry sample of a colony of E. coli bacteria was lifted off an agar petri dish that contained a series of growing cultures. This dry sample was then rubbed onto a pre-moistened dye coated SCOTT® paper towel. The area where the colony was placed and rubbed turned colorless within 1 to 5 seconds.
# [4] = test system: Herpes Simplex Virus 1 (HSV-1); assay: Virus detection on Reichardt's dye-coated stickers; conditions: undiluted virus, 50 microliters, 3 minutes
# A. niger = assay: Titration of microorganisms with Reichardt's dye on cellulosic towel; conditions: mold, 10^5
# E. coli [5] = assay: Delta E of dye-coated paper and label substrates versus bacteria concentration; conditions: for Delta E of unknown sample / log CFU/ml (estimated): E. coli
# Description: (§1) More specifically, indicator strips coated with Reichardt's dye were exposed with decreasing amounts of the bacteria aliquots. A hand-held spectrophotometer was used to after application of each aliquot to determine “Delta E” value (calculated using L*, A*, and B* values) for each CFU/mL concentration. The results are set forth below in Table 4 (for paper) and Table 5 (for label). From the above, standard detection curves were generated as shown in FIGS. 5-7 for S. aureus, P. aeruginosa, and E. coli, respectively. As shown, each type of bacteria changed the color of the dye-treated substrate in a slightly different way, creating a unique standard curve. Thereafter, drops of unknown bacteria concentrations were placed on the stickers and a spectrophotometer was used to measure the “Delta E” of the resulting color. The numerical values obtained for each unknown sample set forth below in Tables 6-7. […] Although a few of the results were not completely accurate, the present inventors believe that improving the uniformity of the coating would further enhance detection accuracy.
# S. aureus [6] = assay: as above
# Description: as §1
# P. aeruginosa = assay: as above
# Description: as §1
# S. aureus [7] = assay: Titration of serially diluted S. aureus suspensions on paper towel with dye
# Description: 100 microliters of serially diluted S. aureus bacterial suspensions were placed onto a SCOTT® paper towel. Drops (10 microliters) of the Reichardt's dye in acetonitrile solution (40 milligrams/10 milliliters) were then pipetted onto each spot where the bacteria was placed. The dye solution changed color in less than 1 second. […] This was repeated on each spot corresponding to where different concentrations of bacteria were placed.
# [8] = Reichardt's dye and TMB coated towel exposed to dilute bleach; conditions: towel coated with mixture of Reichardt's dye and TMB
# measles = assay: Virus detection on Reichardt's dye-coated stickers; conditions: undiluted virus, 50 microliters, 3 minutes
# [9] = Color change of dye with bacterial cell-wall compounds on paper towel; conditions: both experimental set-ups; 160 mg/10 mL acetonitrile
# [10] = Acid-base reversibility of dye color on towel
# vaginal fluid samples = assay: Dye-coated stickers tested with vaginal fluid samples
# Experimental: A sticker of each concentration was tested with normal, BV positive/pH positive, and BV negative/pH positive vaginal fluid samples. […] The three states of color change were easily distinguishable.
# [11] = test system: aged, pooled female urine; assay: Bacterial quantification of aged pooled female urine by dye titration; conditions: 100 microliters urine
# Description: Table 2 presents the volume of each dye solution required for the dye color to remain steady.
# [12] = label substrate, log CFU/ml (actual) 7
# [13] = paper substrate, log CFU/ml (actual) 3
# [14] = paper substrate, S. aureus, log CFU/ml (actual) 5
# [15] = paper substrate, P. aeruginosa, log CFU/ml (actual) 3
smiles,measurement,setting,value
"[O-]c1c(-c2ccccc2)cc(-[n+]2c(-c3ccccc3)cc(-c3ccccc3)cc2-c2ccccc2)cc1-c1ccccc1 [Reichardt's dye, 4-(2,4,6-triphenylpyridinium-1-yl)-2,6-diphenylphenolate]",Color change on dropping dye onto aged chicken juice,aged chicken juice,immediately changed color
same,Time to color change,[1],20 to 30 s
same,Ten-fold dilution down to which stickers changed color,Polio virus type 1,10^−6
same,Time to change color to a white spot,E. coli [2],less than 10 seconds
same,Time to turn colorless,E. coli [3],1 to 5 s
same,De-colorization of sticker,[4],stronger de-colorization of the sticker than that observed for Rhinovirus and Polio virus
same,Amount of Dye Required for Persistent Color,A. niger,50 µL
same,Delta E of unknown sample,E. coli [5]; [12],7.1157
same,log CFU/ml (estimated),E. coli [5]; [12],7
same,Delta E (E. coli),"E. coli [5]; label substrate, log CFU/ml 3",5.13
same,Delta E (E. coli),"E. coli [5]; label substrate, log CFU/ml 4",5.201
same,Delta E (E. coli),"E. coli [5]; label substrate, log CFU/ml 5",4.644
same,Delta E (E. coli),"E. coli [5]; label substrate, log CFU/ml 6",4.867
same,Delta E (E. coli),"E. coli [5]; label substrate, log CFU/ml 7",7.779
same,Delta E of unknown sample,E. coli [5]; [13],1.3605
same,log CFU/ml (estimated),E. coli [5]; [13],5
same,Delta E (E. coli),"E. coli [5]; paper substrate, log CFU/ml 3",3.8228
same,Delta E (E. coli),"E. coli [5]; paper substrate, log CFU/ml 4",3.0123
same,Delta E (E. coli),"E. coli [5]; paper substrate, log CFU/ml 5",2.3320
same,Delta E (E. coli),"E. coli [5]; paper substrate, log CFU/ml 6",3.2574
same,Delta E (E. coli),"E. coli [5]; paper substrate, log CFU/ml 7",4.3483
same,Delta E (E. coli),"E. coli [5]; paper substrate, log CFU/ml 8",9.3642
same,Delta E of unknown sample,"S. aureus [6]; label substrate, S. aureus, log CFU/ml (actual) 6",6.869 and 4.228
same,Delta E (S. aureus),"S. aureus [6]; label substrate, log CFU/ml 3",5.414
same,Delta E (S. aureus),"S. aureus [6]; label substrate, log CFU/ml 4",4.791
same,Delta E (S. aureus),"S. aureus [6]; label substrate, log CFU/ml 5",6.92
same,Delta E (S. aureus),"S. aureus [6]; label substrate, log CFU/ml 6",6.908
same,Delta E (S. aureus),"S. aureus [6]; label substrate, log CFU/ml 7",18.62
same,Delta E of unknown sample,S. aureus [6]; [14],3.161
same,log CFU/ml (estimated),S. aureus [6]; [14],5
same,Delta E (S. aureus),"S. aureus [6]; paper substrate, log CFU/ml 3",1.867
same,Delta E (S. aureus),"S. aureus [6]; paper substrate, log CFU/ml 4",2.074
same,Delta E (S. aureus),"S. aureus [6]; paper substrate, log CFU/ml 5",2.447
same,Delta E (S. aureus),"S. aureus [6]; paper substrate, log CFU/ml 6",3.876
same,Delta E (S. aureus),"S. aureus [6]; paper substrate, log CFU/ml 7",11.73
same,Delta E of unknown sample,"P. aeruginosa; label substrate, P. aeruginosa, log CFU/ml (actual) 6",4.4954 and 4.1002
same,Delta E (P. aeruginosa),"P. aeruginosa; label substrate, log CFU/ml 3",3.8787
same,Delta E (P. aeruginosa),"P. aeruginosa; label substrate, log CFU/ml 4",4.9473
same,Delta E (P. aeruginosa),"P. aeruginosa; label substrate, log CFU/ml 5",4.6519
same,Delta E (P. aeruginosa),"P. aeruginosa; label substrate, log CFU/ml 6",4.2419
same,Delta E (P. aeruginosa),"P. aeruginosa; label substrate, log CFU/ml 7",6.9567
same,Delta E of unknown sample,P. aeruginosa; [15],1.0267
same,log CFU/ml (estimated),P. aeruginosa; [15],5
same,Delta E (P. aeruginosa),"P. aeruginosa; paper substrate, log CFU/ml 3",1.7900
same,Delta E (P. aeruginosa),"P. aeruginosa; paper substrate, log CFU/ml 4",2.2358
same,Delta E (P. aeruginosa),"P. aeruginosa; paper substrate, log CFU/ml 5",1.7151
same,Delta E (P. aeruginosa),"P. aeruginosa; paper substrate, log CFU/ml 6",1.3193
same,Delta E (P. aeruginosa),"P. aeruginosa; paper substrate, log CFU/ml 7",4.9569
same,Time for dye solution to change color,"S. aureus [7]; 10 microliter drops, 40 mg/10 mL acetonitrile, on S. aureus spots",less than 1 second
same,Correlation of titration with level of bacterial contamination,S. aureus [7]; drops added until color remained steady,good correlation
same,Color response to dilute bleach solution,[8],de-colorizing
same,De-colorization of sticker,measles,less than that observed for the other viruses
same,Color change of dye with muramic acid,[9],near instantaneous color change
same,Effect of 1 N NaOH on the changed spots,[10]; after acetic acid or pH 2.0 buffer,rapid re-colorization
same,Color change with acetic acid and pH 2.0 buffer,[10]; dried dye spots on towel,rapid color change
same,Color change of dye-coated sticker,vaginal fluid samples; BV negative/pH positive sample,only faintly changed the color
same,Color change of dye-coated sticker,vaginal fluid samples; BV positive/pH positive sample,next sharpest color change
same,Color change of dye-coated sticker,vaginal fluid samples; normal vaginal fluid,sharpest color change
same,Volume of dye solution required for the dye color to remain steady,[11]; 4 mg/ml dye solution in acetonitrile,120 µL
same,Volume of dye solution required for the dye color to remain steady,[11]; 16 mg/ml dye solution in acetonitrile,30 µL
